Target: T1, Sodium- and chloride-dependent creatine transporter 1 (Homo sapiens, UniProt P48029)
T1 sequence (P48029 whole entry): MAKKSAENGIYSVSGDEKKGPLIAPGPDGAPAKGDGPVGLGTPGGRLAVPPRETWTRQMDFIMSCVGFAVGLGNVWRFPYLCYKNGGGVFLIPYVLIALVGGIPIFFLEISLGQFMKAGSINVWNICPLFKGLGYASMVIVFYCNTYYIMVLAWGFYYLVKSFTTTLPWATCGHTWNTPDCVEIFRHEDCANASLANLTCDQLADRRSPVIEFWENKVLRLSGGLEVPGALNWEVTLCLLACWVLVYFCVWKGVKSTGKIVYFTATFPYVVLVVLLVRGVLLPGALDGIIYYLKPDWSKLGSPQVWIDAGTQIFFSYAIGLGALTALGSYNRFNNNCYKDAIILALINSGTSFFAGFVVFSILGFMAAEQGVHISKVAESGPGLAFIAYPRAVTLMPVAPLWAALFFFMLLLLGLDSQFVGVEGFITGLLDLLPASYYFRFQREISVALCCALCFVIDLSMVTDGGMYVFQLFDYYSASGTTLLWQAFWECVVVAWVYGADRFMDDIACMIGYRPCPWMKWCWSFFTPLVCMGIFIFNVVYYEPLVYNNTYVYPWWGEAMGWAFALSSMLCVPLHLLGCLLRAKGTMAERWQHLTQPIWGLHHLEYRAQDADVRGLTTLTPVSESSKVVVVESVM
Experiment: Substrate uptake by the Sodium- and Chloride-Dependent Creatine Transporter 1 (CRTR, SLC6A8) as assessed by the fluorescent FLIPR membrane potential dye in HEK-293 JumpIN-SLC6A8 cells (PubChem AID: 1794823)
Assay type: functional, cell-based, HEK293

## CN(CC(=O)O)C(=N)N [CREATINE]
  EC50: 5 µM
